According to PubChem BioAssay AID328 (DTP/NCI, 2004):
Several values for one entry are separate records, joined by “and”; a condition that tells them apart may be missing. Equal entries are not always repeated. Toxic doses and inconclusive results are not listed. How the source made its calls: active means survival T/C of 150% or more; inactive means T/C below 125% in these data.

Tested on: BDF1 mice, P388 leukemia ip, median survival T/C
Test: NCI In Vivo Anticancer Drug Screen. Data for tumor model P388 Leukemia (intraperitoneal) in B6D2F1 (BDF1) mice
Details: endpoint: median survival time, higher = longer survival
Experimental: The antitumor activity of compounds was measured in mice bearing transplantable tumors. Survival or tumor size were measured and the results are expressed as the measurement made in the treated group (T) divided by the measurement made in the vehicle treated control group (C). The tumor model used in this assay is P388 Leukemia (intraperitoneal) in B6D2F1 (BDF1) mice

[1] = dose: 100.0 mg/kg/injection, schedule: Q04DX003 (ip), vehicle: saline
[2] = dose: 200.0 mg/kg/injection, schedule: Q04DX003 (ip), vehicle: saline
[3] = dose: 50.0 mg/kg/injection, schedule: Q01DX009 (ip), vehicle: saline with Tween-80
[4] = dose: 100.0 mg/kg/injection, schedule: Q04DX003 (sc), vehicle: olive oil, sesame oil, peanut oil
[5] = dose: 200.0 mg/kg/injection, schedule: Q04DX003 (sc), vehicle: olive oil, sesame oil, peanut oil
[6] = dose: 400.0 mg/kg/injection, schedule: Q04DX003 (sc), vehicle: olive oil, sesame oil, peanut oil

Measured: T/C

CCCCCCC(=O)/C=C/c1ccc(Cl)c(Cl)c1
inactive: dose: 75.0 mg/kg/injection, schedule: Q01DX009 (ip), vehicle: saline with Tween-80 106 % of control | dose: 150.0 mg/kg/injection, schedule: Q01DX009 (ip), vehicle: saline with Tween-80 98 % of control | dose: 300.0 mg/kg/injection, schedule: Q01DX009 (ip), vehicle: saline with Tween-80 93 % of control

CC1OC(OC2CC(O)C3(CO)C4C(O)CC5(C)C(C6=CC(=O)OC6)CCC5(O)C4CCC3(O)C2)C(O)C(O)C1O (stereo not drawn)
inactive: dose: 1.5 mg/kg/injection, schedule: Q01DX010 (ip), vehicle: saline 90 % of control | dose: 3.0 mg/kg/injection, schedule: Q01DX010 (ip), vehicle: saline 90 % of control

CC1C2CCCC1(OC(=O)c1cc([N+](=O)[O-])cc([N+](=O)[O-])c1)C2 (stereo not drawn)
inactive: dose: 100.0 mg/kg/injection, schedule: Q04DX002 (ip), vehicle: saline with Tween-80 101 % of control | dose: 200.0 mg/kg/injection, schedule: Q04DX002 (ip), vehicle: saline with Tween-80 94 % of control | dose: 400.0 mg/kg/injection, schedule: Q04DX002 (ip), vehicle: saline with Tween-80 95 % of control

Nc1nc(=O)n(C2OC(CO)C(O)C2O)c2scnc12 (stereo not drawn)
inactive: dose: 25.0 mg/kg/injection, schedule: Q04DX003 (ip), vehicle: saline 108 % of control | dose: 50.0 mg/kg/injection, schedule: Q04DX003 (ip), vehicle: saline 118 % of control | [1] 118 % of control | [2] 108 % of control

COc1cc([C@@H]2c3cc4c(cc3[C@@H](OC3OC5CO[C@@H](c6cccs6)OC5C(O)C3O)[C@H]3COC(=O)[C@H]23)OCO4)cc(OC)c1O (stereo partly drawn)
active: dose: 0.25 mg/kg/injection, schedule: Q01DX010 (ip), vehicle: saline 166 % of control and 175 % of control | dose: 0.5 mg/kg/injection, schedule: Q01DX010 (ip), vehicle: saline 179 % of control and 183 % of control | dose: 1.0 mg/kg/injection, schedule: Q01DX010 (ip), vehicle: saline 166 % of control and 216 % of control | dose: 2.0 mg/kg/injection, schedule: Q01DX010 (ip), vehicle: saline 233 % of control and 250 % of control | dose: 2.88 mg/kg/injection, schedule: Q04DX003 (ip), vehicle: saline 300 % of control | dose: 3.24 mg/kg/injection, schedule: Q04DX003 (ip), vehicle: clinical formulation 327 % of control | dose: 4.8 mg/kg/injection, schedule: Q04DX003 (ip), vehicle: saline 596 % of control | dose: 5.4 mg/kg/injection, schedule: Q04DX003 (ip), vehicle: clinical formulation 557 % of control | dose: 8.0 mg/kg/injection, schedule: Q04DX003 (ip), vehicle: saline 378 % of control | dose: 9.0 mg/kg/injection, schedule: Q04DX003 (ip), vehicle: clinical formulation 557 % of control | dose: 13.33 mg/kg/injection, schedule: Q04DX003 (ip), vehicle: saline 240 % of control | dose: 15.0 mg/kg/injection, schedule: Q04DX003 (ip), vehicle: clinical formulation 558 % of control
inactive: dose: 4.0 mg/kg/injection, schedule: Q01DX010 (ip), vehicle: saline 100 % of control

COn1nnc2c([N+](=O)[O-])cccc21
inactive: [3] 109 % of control

O=C1NC(=O)c2cc([N+](=O)[O-])cc3cccc1c23
inactive: dose: 100.0 mg/kg/injection, schedule: Q04DX003 (ip), vehicle: saline sonified 91 % of control | dose: 200.0 mg/kg/injection, schedule: Q04DX003 (ip), vehicle: saline sonified 95 % of control | dose: 400.0 mg/kg/injection, schedule: Q04DX003 (ip), vehicle: saline sonified 87 % of control

CC(=O)OCCC/C(=C/c1cc2ccccc2c2ccccc12)[N+](=O)[O-]
inactive: dose: 100.0 mg/kg/injection, schedule: Q01DX009 (ip), vehicle: Klucel (hydroxypropylcellulose) (HPC) 115 % of control | dose: 200.0 mg/kg/injection, schedule: Q01DX009 (ip), vehicle: Klucel (hydroxypropylcellulose) (HPC) 120 % of control

CC1CC[N-]CC1.CC1CC[N-]CC1.CC1CC[N-]CC1.CC1CC[N-]CC1.O=C([O-])C(=O)[O-].O=C([O-])C(=O)[O-].[Nb+5].[O-][O-].[O-][O-].[Pt+4]
inactive: dose: 0.39 mg/kg/injection, schedule: Q01DX009 (ip), vehicle: saline 106 % of control | dose: 0.78 mg/kg/injection, schedule: Q01DX009 (ip), vehicle: saline 102 % of control | dose: 1.56 mg/kg/injection, schedule: Q01DX009 (ip), vehicle: saline 115 % of control | dose: 3.12 mg/kg/injection, schedule: Q01DX009 (ip), vehicle: saline 102 % of control

Cc1ccc(NC(=O)c2ccc(C)c([N+](=O)[O-])c2)c(C)c1
inactive: dose: 100.0 mg/kg/injection, schedule: Q01DX008 (sc), vehicle: olive oil, sesame oil, peanut oil 87 % of control | [4] 88 % of control | dose: 200.0 mg/kg/injection, schedule: Q01DX008 (sc), vehicle: olive oil, sesame oil, peanut oil 100 % of control | [5] 88 % of control | dose: 400.0 mg/kg/injection, schedule: Q01DX008 (sc), vehicle: olive oil, sesame oil, peanut oil 87 % of control | [6] 92 % of control

Oc1ccc(/C=N/NC(=S)Nc2ccccc2)nc1
active: dose: 400.0 mg/kg/injection, schedule: Q04DX003 (ip), vehicle: Klucel (hydroxypropylcellulose) (HPC) 150 % of control

NC(CCC(=O)NNc1ccccc1)C(=O)O (stereo not drawn)
inactive: dose: 15.0 mg/kg/injection, schedule: Q01DX009 (ip), vehicle: saline with Tween-80 96 % of control | dose: 30.0 mg/kg/injection, schedule: Q01DX009 (ip), vehicle: saline with Tween-80 91 % of control

OCCC1=CCC1
inactive: [3] 101 % of control | dose: 100.0 mg/kg/injection, schedule: Q01DX009 (ip), vehicle: saline with Tween-80 101 % of control | dose: 200.0 mg/kg/injection, schedule: Q01DX009 (ip), vehicle: saline with Tween-80 111 % of control

CC(=O)Nc1ccn(CC(=O)c2cccs2)c(=O)n1
inactive: dose: 100.0 mg/kg/injection, schedule: Q01DX009 (ip), vehicle: saline 90 % of control | [1] 86 % of control | dose: 200.0 mg/kg/injection, schedule: Q01DX009 (ip), vehicle: saline 95 % of control | [2] 86 % of control | dose: 400.0 mg/kg/injection, schedule: Q01DX009 (ip), vehicle: saline 90 % of control | dose: 400.0 mg/kg/injection, schedule: Q04DX003 (ip), vehicle: saline 100 % of control

CC(CN(C)C)C(=O)/C=C/c1ccccc1 (stereo not drawn)
inactive: dose: 18.75 mg/kg/injection, schedule: Q01DX009 (ip), vehicle: saline 100 % of control | dose: 37.5 mg/kg/injection, schedule: Q01DX009 (ip), vehicle: saline 109 % of control | dose: 75.0 mg/kg/injection, schedule: Q01DX009 (ip), vehicle: saline 109 % of control

Cc1cccc(C(=O)NN)c1O
inactive: dose: 25.0 mg/kg/injection, schedule: Q01DX009 (ip), vehicle: saline + alcohol 92 % of control | dose: 100.0 mg/kg/injection, schedule: Q01DX009 (ip), vehicle: saline + alcohol 97 % of control

C=CCc1c(C)cc(C)c(C)c1O
inactive: [4] 96 % of control | [5] 92 % of control | [6] 92 % of control

CCC1COC(CC)N1 (stereo not drawn)
inactive: dose: 50.0 mg/kg/injection, schedule: Q01DX005 (ip), vehicle: saline with Tween-80 103 % of control | dose: 100.0 mg/kg/injection, schedule: Q01DX005 (ip), vehicle: saline with Tween-80 110 % of control | dose: 200.0 mg/kg/injection, schedule: Q01DX005 (ip), vehicle: saline with Tween-80 120 % of control

CCOC(=O)/C(C#N)=C1\CCc2cc(OC)ccc21
inactive: dose: 100.0 mg/kg/injection, schedule: Q01DX001 (ip), vehicle: saline with Tween-80 92 % of control | dose: 200.0 mg/kg/injection, schedule: Q01DX001 (ip), vehicle: saline with Tween-80 88 % of control | dose: 400.0 mg/kg/injection, schedule: Q01DX001 (ip), vehicle: saline with Tween-80 88 % of control

CC[C@H](/C=C/[C@@H](C)[C@H]1CC[C@H]2[C@@H]3CC=C4C[C@@H](OC(=O)/C=C\C(=O)O)CC[C@]4(C)[C@H]3CC[C@]12C)C(C)C
inactive: dose: 6.25 mg/kg/injection, schedule: Q01DX009 (ip), vehicle: other 120 % of control | dose: 12.5 mg/kg/injection, schedule: Q01DX009 (ip), vehicle: other 105 % of control | dose: 18.75 mg/kg/injection, schedule: Q04DX003 (ip), vehicle: other 100 % of control | dose: 25.0 mg/kg/injection, schedule: Q01DX009 (ip), vehicle: other 100 % of control | dose: 37.5 mg/kg/injection, schedule: Q04DX003 (ip), vehicle: other 95 % of control | dose: 75.0 mg/kg/injection, schedule: Q04DX003 (ip), vehicle: other 104 % of control
